These results are taken from ChEMBL document CHEMBL1201862, “PubChem BioAssay data set” (2004).

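1) Cells in 96-well plates. 2) Compound, 48 h, 5 concentrations. 3) Linear interpolation between surrounding doses. 4) Unreached endpoint = highest concentration. GI50 is the concentration that inhibits growth by half.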 Calls of active or inactive are those of the source. Rule as the data show it: active = GI50 up to about 1.1 µM and inactive = higher.

Among the test systems are OVCAR-4; U-251; HT-29; MDA-MB-231; A498; HOP-92; SR; NCI/ADR-RES; 786-0; Malme-3M; HOP-62; SF-268; NCI-H522; K562; M14; SNB-75; PC-3; NCI-H460; HCC 2998; SK-MEL-28.
What all share (assay): DTP human tumour cell line panel, 48 h

`COCCOCCOC1=C(Cl)C(=O)c2c(O)ccc(O)c2C1=O`: the GI50 in the assay with OVCAR-4 is 1.85 µM (inactive); in the assay with U-251, 5.16 µM (inactive); in the assay on HT-29, 3.48 µM (inactive); in the assay on MDA-MB-231 it was 2.01 µM (inactive); in the assay on A498, 3.59 µM (inactive); in the assay with HOP-92, 1.98 µM (inactive). Further, the GI50 in the assay on SR is 0.399 µM (active); with NCI/ADR-RES, 2.93 µM (inactive); with 786-0, 1.12 µM (active); with Malme-3M, 1.65 µM (inactive); with HOP-62 it was 2.39 µM (inactive); in the assay with SF-268, 2.59 µM (inactive). In addition, the GI50 in the assay with NCI-H522 was 1.01 µM (active); in the assay on K562, 1.21 µM (inactive); in the assay with M14, 1.59 µM (inactive); in the assay on SNB-75, 15.6 µM (inactive); in the assay with PC-3, 5.42 µM (inactive); in the assay with NCI-H460, 12.9 µM (inactive). The figures for the GI50 in the assay with HCC 2998 and with SK-MEL-28 were 18.6 µM (inactive) and 2.33 µM (inactive), respectively.
Take `COC1C(O)C(C)OC(O[C@@H]2C[C@H]3CC[C@@H]4[C@H](CC[C@]5(C)[C@@H](C6=CC(=O)OC6)CC[C@]45O)[C@@]3(C)[C@H](O)C2)C1O` (stereo partly specified): the 50% growth inhibitory concentration (GI50) was 0.057 µM (active) in the assay with OVCAR-4; 0.0849 µM (active) in the assay with U-251; 0.0849 µM (active) in the assay on HT-29; 0.313 µM (active) in the assay with MDA-MB-231; 0.0525 µM (active) with A498; 0.106 µM (active) with HOP-92. The GI50 in the assay with SR was 0.0766 µM (active); in the assay with NCI/ADR-RES, < 0.0443 µM (active); in the assay on 786-0, 0.149 µM (active); in the assay on Malme-3M it was < 0.0396 µM (active); in the assay on HOP-62, 0.0333 µM (active); in the assay on SF-268, < 0.0272 µM (active). Moreover, the concentration for 50% growth inhibition (GI50) in the assay on NCI-H522 was < 0.01 µM (active); with K562 it was 0.0785 µM (active); in the assay with M14, 0.0741 µM (active); in the assay on SNB-75, 0.126 µM (active); in the assay with PC-3 it was 0.0755 µM (active); in the assay with NCI-H460, 0.0347 µM (active). The GI50 in the assay with HCC 2998 is 0.719 µM (active); in the assay on SK-MEL-28, 0.216 µM (active).
For `O=C(/C=C/c1cccs1)c1ccc(C(=O)/C=C/c2cccs2)cc1`, the GI50 with OVCAR-4, with U-251, in the assay on HT-29, with MDA-MB-231, in the assay on A498 and with HOP-92 was > 100 µM (inactive) throughout. Further, the GI50 in the assay with SR, in the assay on NCI/ADR-RES, in the assay on 786-0, in the assay with Malme-3M, with HOP-62 and in the assay with SF-268 was > 100 µM (inactive) each time. For the same molecule, the GI50 in the assay on NCI-H522, with M14, in the assay on SNB-75, in the assay on PC-3, in the assay with NCI-H460 and in the assay with HCC 2998 was > 100 µM (inactive) in each case. In addition, the GI50 with SK-MEL-28 was > 100 µM (inactive).
For `COc1ccc2c(c1)[n+]([O-])c(/C(C)=N/NC(N)=S)c(C)[n+]2[O-]`, the GI50 in the assay with OVCAR-4 is 58.9 µM (inactive); with U-251, 44.4 µM (inactive); in the assay on HT-29, 52.1 µM (inactive); in the assay on MDA-MB-231 it was 89.7 µM (inactive); with A498, > 100 µM (inactive); with HOP-92, > 85.9 µM (inactive). Also, the GI50 in the assay on SR was 2 µM (inactive); with NCI/ADR-RES it was 28.8 µM (inactive); with 786-0, 43.6 µM (inactive); with Malme-3M, 75.7 µM (inactive); with HOP-62, 75.3 µM (inactive); in the assay on SF-268, 46.3 µM (inactive). In addition, the GI50 in the assay on NCI-H522 is 31 µM (inactive); with K562 it was 41.5 µM (inactive); in the assay with M14, 37.6 µM (inactive); with SNB-75, 79.4 µM (inactive); in the assay with PC-3 it was > 100 µM (inactive); in the assay on NCI-H460, 27.8 µM (inactive). Moreover, the GI50 in the assay on HCC 2998 was 20.5 µM (inactive); in the assay on SK-MEL-28 it was > 56.2 µM (inactive).
In the case of `c1ccc2c(CSCc3cccc4ccccc34)cccc2c1`, the GI50 with OVCAR-4 is > 100 µM (inactive); in the assay on U-251, 85.1 µM (inactive); in the assay with HT-29, 40.2 µM (inactive); in the assay on MDA-MB-231 it was > 100 µM (inactive); in the assay on A498 it was > 100 µM (inactive); with HOP-92, > 100 µM (inactive). Also, the GI50 is 28.6 µM (inactive) in the assay with SR; > 100 µM (inactive) in the assay on NCI/ADR-RES; > 100 µM (inactive) with 786-0; 58.9 µM (inactive) with Malme-3M; > 100 µM (inactive) in the assay with HOP-62; > 100 µM (inactive) in the assay with SF-268. The GI50 with NCI-H522 is 99.3 µM (inactive); with K562 it was 76.7 µM (inactive); in the assay with M14 it was > 100 µM (inactive); in the assay with SNB-75 it was > 100 µM (inactive); with PC-3, 43.4 µM (inactive); with NCI-H460, 43.4 µM (inactive). Besides, the values for the GI50 in the assay with HCC 2998 and with SK-MEL-28 were 50.8 µM (inactive) and > 100 µM (inactive), respectively.
For the molecule `CN1CCC[N+](C)=C1c1ccccc1`, the GI50 in the assay on OVCAR-4 was > 100 µM (inactive); in the assay with U-251, > 100 µM (inactive); in the assay with HT-29 it was > 100 µM (inactive); in the assay on MDA-MB-231, > 100 µM (inactive); in the assay with A498, 37.2 µM (inactive); in the assay with HOP-92 it was > 100 µM (inactive). Moreover, the GI50 with SR, in the assay on NCI/ADR-RES, in the assay with 786-0, with Malme-3M, in the assay on HOP-62 and in the assay on SF-268 was > 100 µM (inactive) in each case. Moreover, the GI50 in the assay on NCI-H522, with K562, with M14, in the assay on SNB-75, in the assay with PC-3 and with NCI-H460 was > 100 µM (inactive) throughout. Also, the GI50 in the assay on HCC 2998 and in the assay on SK-MEL-28 was > 100 µM (inactive) each time.
`CCCCCC(=O)OCC1(CO)C/C(=C\CC(C(C)C)C(C)C)C(=O)O1` (stereo unspecified): the GI50 in the assay on OVCAR-4 was > 100 µM (inactive); in the assay on U-251, 25.1 µM (inactive); in the assay with HT-29, 30.7 µM (inactive); in the assay on MDA-MB-231, > 100 µM (inactive); with A498 it was 86.1 µM (inactive); in the assay on HOP-92, 93.3 µM (inactive). The GI50 is 27.2 µM (inactive) in the assay with SR; 87.5 µM (inactive) in the assay with NCI/ADR-RES; 31.9 µM (inactive) in the assay on 786-0; 15.3 µM (inactive) with Malme-3M; 39 µM (inactive) in the assay on HOP-62; > 100 µM (inactive) with SF-268. The GI50 in the assay with NCI-H522 was 21.9 µM (inactive); in the assay with K562, 24.1 µM (inactive); in the assay on M14, > 100 µM (inactive); in the assay with SNB-75 it was 44.4 µM (inactive); in the assay with PC-3, > 100 µM (inactive); in the assay on NCI-H460, 42.3 µM (inactive). The GI50 with HCC 2998 is > 100 µM (inactive); with SK-MEL-28, 59.3 µM (inactive).
With `Cc1ccc(S(=O)(=O)C2=c3ncccc3=C3C(=O)c4ccccc4C(=O)C32)cc1` (stereo unspecified), the GI50 was 15.8 µM (inactive) in the assay with OVCAR-4; 57.7 µM (inactive) with U-251; > 100 µM (inactive) in the assay on HT-29; 29.6 µM (inactive) in the assay with MDA-MB-231; 5.81 µM (inactive) in the assay with A498; 25.4 µM (inactive) in the assay with HOP-92. Besides, the GI50 in the assay on SR was > 100 µM (inactive); with NCI/ADR-RES it was 49.3 µM (inactive); in the assay with 786-0, 28.4 µM (inactive); in the assay with Malme-3M it was 53.7 µM (inactive); in the assay with HOP-62, 4.71 µM (inactive); with SF-268, 46.7 µM (inactive). Moreover, the GI50 was 4.38 µM (inactive) in the assay with NCI-H522; > 95.9 µM (inactive) in the assay on K562; > 100 µM (inactive) in the assay with M14; 52.6 µM (inactive) in the assay with SNB-75; 61.4 µM (inactive) in the assay on PC-3; 7.11 µM (inactive) in the assay on NCI-H460. Besides, the GI50 was > 10 µM (inactive) with HCC 2998 and > 100 µM (inactive) in the assay with SK-MEL-28.
Turning to `Clc1ccc(C(Cc2ccccc2)c2c(Cl)nc(N3CCNCC3)nc2Cl)cc1` (stereo unspecified), the GI50 in the assay with OVCAR-4 was 18.6 µM (inactive); in the assay on U-251 it was 14 µM (inactive); in the assay with HT-29 it was 2.64 µM (inactive); with MDA-MB-231, 12.8 µM (inactive); in the assay with A498, 11.9 µM (inactive); in the assay on HOP-92 it was 8.57 µM (inactive). In addition, the GI50 is 1.63 µM (inactive) in the assay with SR; 15.8 µM (inactive) in the assay with NCI/ADR-RES; 16.5 µM (inactive) in the assay on 786-0; 14.3 µM (inactive) in the assay with Malme-3M; 15.7 µM (inactive) in the assay on HOP-62; 12.4 µM (inactive) in the assay with NCI-H522. The GI50 with K562 was 3.46 µM (inactive); in the assay with M14, 16.2 µM (inactive); in the assay with SNB-75, 14.1 µM (inactive); with PC-3, 14.3 µM (inactive); with NCI-H460 it was 12.1 µM (inactive); in the assay on HCC 2998, 6.3 µM (inactive). The GI50 in the assay on SK-MEL-28 is 13.7 µM (inactive).
Turning to `CN(Cc1cnc2nc(N)nc(N)c2n1)c1ccc(C(=O)NC(CCC(=O)O)C(=O)O)cc1` (stereo unspecified), the GI50 with OVCAR-4 is > 70.8 µM (inactive); with U-251, 0.0916 µM (active); with HT-29, < 0.01 µM (active); in the assay on MDA-MB-231 it was > 100 µM (inactive); with A498, > 100 µM (inactive); with HOP-92, 25.4 µM (inactive). Besides, the GI50 was < 0.01 µM (active) in the assay on SR; 0.0249 µM (active) in the assay on NCI/ADR-RES; 7.29 µM (inactive) with Malme-3M; < 0.0298 µM (active) in the assay on SF-268; 0.398 µM (active) in the assay with NCI-H522; < 0.01 µM (active) in the assay on K562. Also, the GI50 is 0.117 µM (active) in the assay with M14; > 57 µM (inactive) with SNB-75; 3.81 µM (inactive) in the assay with PC-3; < 0.01 µM (active) in the assay on NCI-H460; 41.5 µM (inactive) with HCC 2998; 1.25 µM (inactive) in the assay with SK-MEL-28.

Broadly, the GI50 is the concentration that inhibits growth by half.
